Values of other authors in patent EP1964550A1, “Glucocorticoid-nitrooxyderivative compositions” (NicOx S.A., priority 2007, dated 2008).

System: irritant acute dermatitis
Conditions: oedema formation and recruitment of leukocytes evaluated; compared with parent compound hydrocortisone

C[C@]12CCC(=O)C=C1CC[C@@H]1[C@@H]2[C@@H](O)C[C@@]2(C)[C@H]1CC[C@]2(O)C(=O)COC(=O)c1ccc(CO[N+](=O)[O-])cc1 [hydrocortisone 21-[4'-(nitrooxymethyl)benzoate]]
anti-inflammatory activity: higher anti-inflammatory activity than the parent compound hydrocortisone
